Source: paper PMC5321434, “Dihydrobenz[e][1,4]oxazepin-2(3H)-ones, a new anthelmintic chemotype immobilising whipworm and reducing infectivity in vivo” (PLoS Neglected Tropical Diseases, 2017)

Test system: adult T. muris
Assay: Ex vivo adult T. muris automated motility assay (primary/secondary screen at 100 μM and dose-response)
Set-up: species or system Trichuris muris
Conditions: 100 μM; for COMBINED_SCREEN_ACTIVITY: combined primary and secondary screen minus log fold change in movement, adult T. muris; for PRIMARY_SCREEN_MINUS_LOG_FOLD_CHANGE_MOVEMENT: primary screen; for PRIMARY_SCREEN_MINUS_LOG_FOLD_CHANGE_MOVEMENT / SECONDARY_SCREEN_MINUS_LOG_FOLD_CHANGE_MOVEMENT: adult T. muris motility; for SECONDARY_SCREEN_MINUS_LOG_FOLD_CHANGE_MOVEMENT: secondary screen
Method: Severe combined immune deficiency (SCID) mice were bred in the Biological Services Facility at the University of Manchester. Both male and female SCID mice were infected with a high dose of 200 infective embryonated T. muris eggs via oral gavage. At day 35 post-infection, groups of 5 mice were killed and their […] colons removed. Guts were opened longitudinally, washed with pre-warmed Roswell Park Memorial Institute (RPMI) 1640 media supplemented with penicillin (500U/ml) and streptomycin (500μg/ml) and adult T. muris worms gently removed using fine forceps. Worms removed from SCID mice were maintained in RPMI-1640 media supplemented with penicillin (500U/ml) and streptomycin (500μg/ml) at approximately 37°C and studied on the same day. Using fine forceps, individual live worms were placed into 96 well plates containing 75μl of RPMI-1640 medium supplemented with penicillin (500U/ml) and streptomycin (500μg/ml) plus 1% final concentration of DMSO or compound dissolved in DMSO. In the primary screen the test compound concentration was 100μM. Plates were then incubated at 37°C, 5% CO2, and motility was analysed after 24 hours. Worm movement was quantified using an automated motility assay. This system gives an estimate of worm movement in each well by thresholding and quantifying pixel intensity variance over time. An earlier version of this system has been previously described. One adult T. muris worm was used per well, with one well per compound in each replicate of the primary screen. The primary screen was repeated each week for a period of four weeks giving four independent biological replicates from separate parasite batches for each compound. Dose-response curves were calculated with the four factor log-logistic model using the R package drc. The primary screen was carried out at 100μM final concentration. Assay plates were assigned unique IDs and statistical analysis was performed without knowledge of compound identities using R scripts. Once hit wells were identified, well/plate positions were mapped to compound identities using DataWarrior [28]. […] Compounds identified as having encouraging activity from the DMSO solution samples were then resynthesized for confirmatory testing.

SMILES	COMBINED_SCREEN_ACTIVITY	PRIMARY_SCREEN_MINUS_LOG_FOLD_CHANGE_MOVEMENT	SECONDARY_SCREEN_MINUS_LOG_FOLD_CHANGE_MOVEMENT
Cn1cc(-c2ccc3c(c2)COCC(=O)N3CC2CCCCC2)cn1 [Compound 67]	7.315	2.012	12.6188
Cn1cc(-c2ccc3c(c2)N(CC2CCCCC2)C(=O)COC3)cn1 [Compound 68]	-0.9119	-0.9119	–
COc1ccc(F)cc1-c1ccc2c(c1)N(CC1CC1)C(=O)COC2 [Compound 69]	11.5841	10.5493	12.6188
COc1cc(F)ccc1-c1ccc2c(c1)N(CC1CC1)C(=O)COC2 [Compound 70]	11.6216	10.6243	12.6188
COCCN1C(=O)COCc2ccc(-c3cccc(COC)c3)cc21 [Compound 71]	-1.553	-1.553	–
O=C1COCc2cc(-c3cccnc3)ccc2N1CCc1ccccc1 [Compound 73]	3.006	3.006	–
O=C1COCc2ccc(-c3cccnc3)cc2N1CCc1ccccc1 [Compound 74]	-0.776	-0.776	–
O=C1COCc2cc(-c3ccncc3)ccc2N1CCc1ccccc1 [Compound 75]	2.679	2.679	–
Cc1ccccc1CN1C(=O)COCc2ccc(-c3cccnc3)cc21 [Compound 76]	-0.5388	-0.5388	–
COCCN1C(=O)COCc2ccc(-c3ccc(F)cc3OC)cc21 [Compound 77]	0.2033	0.2033	–
O=C1COCc2cc(-c3cccc(O)c3)ccc2N1Cc1ccccc1 [Compound 78]	-0.318	-0.318	–
O=C1COCc2cc(Br)ccc2N1CCc1ccccc1 [Compound 79]	-0.767	-0.767	–
O=C1COCc2ccc(Br)cc2N1CCc1ccccc1 [Compound 80]	10.5493	10.5493	–
Cc1ccccc1CN1C(=O)COCc2ccc(Br)cc21 [Compound 81]	11.5466	10.4743	12.6188
Cc1ccc(CN2C(=O)COCc3cc(-c4cnn(C)c4)ccc32)cc1 [Compound 82]	0.6432	0.6432	–
COCCN1C(=O)COCc2ccc(-c3ccc(F)c(Cl)c3)cc21 [Compound 83]	1.936	1.936	–
COCCN1C(=O)COCc2ccc(-c3cc(F)cc(Cl)c3)cc21 [Compound 84]	0.4605	0.4605	–
O=C1COCc2ccc(-c3ccccc3)cc2N1CCN1CCOCC1 [Compound 85]	0.2067	0.2067	–
O=C1COCc2ccc(-c3cccnc3)cc2N1CCN1CCOCC1 [Compound 86]	-1.564	-1.564	–
COCCN1C(=O)COCc2ccc(-c3cccc(NC(C)=O)c3)cc21 [Compound 88]	-0.1104	-1.635	1.414
N#Cc1cccc(-c2ccc3c(c2)N(Cc2ccccc2)C(=O)COC3)c1 [Compound 89]	0.3109	0.3109	–
N#Cc1cccc(-c2ccc3c(c2)COCC(=O)N3Cc2ccccc2)c1 [Compound 90]	-1.512	-1.512	–

SMILES	COMBINED_SCREEN_ACTIVITY	PRIMARY_SCREEN_MINUS_LOG_FOLD_CHANGE_MOVEMENT	SECONDARY_SCREEN_MINUS_LOG_FOLD_CHANGE_MOVEMENT
O=C1COCc2cc(Br)ccc2N1CCN1CCOCC1 [Compound 91]	-2.221	-2.221	–
O=C1COCc2ccc(Br)cc2N1CCN1CCOCC1 [Compound 92]	-1.293	-1.293	–
COCCN1C(=O)COCc2ccc(-c3cccc(C(=O)OC)c3)cc21 [Compound 93]	-1.513	-1.513	–
COc1ccccc1-c1cccc2c1COCC(=O)N2Cc1ccccc1 [Compound 94]	10.5493	10.5493	–
COc1ccccc1-c1ccc2c(c1)COCC(=O)N2Cc1ccccc1 [Compound 95]	-1.179	-1.179	–
COc1ccccc1-c1ccc2c(c1)N(Cc1ccccc1)C(=O)COC2 [Compound 96]	-0.4906	-0.4906	–
O=C1COCc2cc(-c3cccc(O)c3)ccc2N1CCc1ccccc1 [Compound 97]	-0.7944	-0.7944	–
Cc1ccc(CN2C(=O)COCc3cc(-c4cccc(O)c4)ccc32)cc1 [Compound 98]	-1.09	-1.09	–
O=C1COCc2ccc(-c3cccc(O)c3)cc2N1CCc1ccccc1 [Compound 99]	-1.58	-1.58	–
COc1ccc(-c2ccc3c(c2)N(Cc2ccccc2)C(=O)COC3)cc1 [Compound 100]	3.027	3.027	–
COc1cccc(CN2C(=O)COCc3ccc(-c4ccccc4)cc32)c1 [Compound 101]	-0.6789	-0.6789	–
COc1ccc(-c2ccc3c(c2)N(Cc2ccccc2)C(=O)COC3)cn1 [Compound 102]	0.7062	0.7062	–
COc1cccc(CN2C(=O)COCc3cc(Br)ccc32)c1 [Compound 103]	7.462	7.462	–
COc1cccc(CN2C(=O)COCc3ccc(Br)cc32)c1 [Compound 104]	-1.975	-1.975	–
COc1cccc(CN2C(=O)COCc3cc(-c4cnn(C)c4)ccc32)c1 [Compound 105]	-0.2739	-0.55	0.002295
O=C1COCc2cc(-c3cccnc3)ccc2N1Cc1ccccc1Cl [Compound 106]	6.595	6.595	–
O=C1COCc2ccc(-c3cccnc3)cc2N1Cc1ccccc1Cl [Compound 107]	2.19	2.19	–
COCCN1C(=O)COCc2ccc(-c3cccc(C(F)(F)F)c3)cc21 [Compound 108]	-0.2552	-0.2552	–
O=C1COCc2cc(-c3cccnc3)ccc2N1Cc1cc(F)cc(F)c1 [Compound 109]	7.462	7.462	–
O=C1COCc2ccc(-c3cccnc3)cc2N1Cc1cc(F)cc(F)c1 [Compound 110]	-0.9208	-0.9208	–
Cc1ccccc1-c1ccc2c(c1)COCC(=O)N2CCN1CCOCC1 [Compound 111]	-0.2494	-0.2494	–
Cc1ccccc1-c1ccc2c(c1)N(CCN1CCOCC1)C(=O)COC2 [Compound 112]	-1.303	-1.303	–
